± gives the expanded uncertainty stated by the source.
Experiment: activity coefficient (dimensionless); of the first substance listed, at infinite dilution; xn = mol fraction of the nth substance listed
Settings: Liquid, Chromatography, x1 = 0

Structure (SMILES)	activity coefficient (308.15 K)	activity coefficient (318.15 K)	activity coefficient (328.15 K)
C=CCCCCC [1-heptene] + CCCC[P+](C)(CCCC)CCCC.COS(=O)(=O)[O-]	8.2 ± 0.6	8 ± 0.5	7.1 ± 0.5
C=CCCCC [hex-1-ene] + CCCC[P+](C)(CCCC)CCCC.COS(=O)(=O)[O-]	6.4 ± 0.4	6 ± 0.4	5.3 ± 0.4
C1CCCC1 [cyclopentane] + CCCC[P+](C)(CCCC)CCCC.COS(=O)(=O)[O-]	4.5 ± 0.3	4.3 ± 0.3	3.5 ± 0.2
CCCCCCCC [octane] + CCCC[P+](C)(CCCC)CCCC.COS(=O)(=O)[O-]	17.3 ± 1.2	15.9 ± 1.1	13.8 ± 0.9
C#CCCCC [1-hexyne] + CCCC[P+](C)(CCCC)CCCC.COS(=O)(=O)[O-]	1.8 ± 0.1	1.7 ± 0.1	
C1CCCCCC1 [cycloheptane] + CCCC[P+](C)(CCCC)CCCC.COS(=O)(=O)[O-]	6.5 ± 0.4	6.4 ± 0.4	5.3 ± 0.4
c1ccccc1 [benzene] + CCCC[P+](C)(CCCC)CCCC.COS(=O)(=O)[O-]	1 ± 0.1	1 ± 0.1	0.9 ± 0.1
C=CCCCCCC [oct-1-ene] + CCCC[P+](C)(CCCC)CCCC.COS(=O)(=O)[O-]	10.1 ± 0.7	10 ± 0.7	8.9 ± 0.6
CCCCC [pentane] + CCCC[P+](C)(CCCC)CCCC.COS(=O)(=O)[O-]	8.1 ± 0.6	7.7 ± 0.5	6.7 ± 0.5
C1CCCCC1 [cyclohexane] + CCCC[P+](C)(CCCC)CCCC.COS(=O)(=O)[O-]	5.5 ± 0.4	5.4 ± 0.4	4.6 ± 0.3
CCCCCC [hexane] + CCCC[P+](C)(CCCC)CCCC.COS(=O)(=O)[O-]	10.3 ± 0.7	9.5 ± 0.7	8.4 ± 0.6
CCCCCCC [heptane] + CCCC[P+](C)(CCCC)CCCC.COS(=O)(=O)[O-]	13.4 ± 0.9	12.2 ± 0.8	10.7 ± 0.7
